Entries after “also recorded” stand apart in the source; their conditions may differ. Bridge positions count the residues as written; N and C are the ends. Peptide text beside a SMILES is read from it.
Assays:
[1] = test system: pre-germinated conidia of A. flavus; settings: read-out: IC50 against A. flavus; in vitro; pre-germinated conidia of A. flavus 70-GFP treated 60 min with 0-25 μM peptide; colonies counted after 24 h at 30° C.
porcine blood cells = test: Hemolysis of porcine blood cells
[2] = test system: maize (Zea mays L. Hi-II); test: Phenotype of transgenic maize plants expressing AGM182; settings: transgenic maize plants vs. isogenic negative or non-transformed control

Row | Molecule | IC50 [1] [µM] | hemolysis of porcine blood cells (porcine blood cells; all concentrations of AGM182) | effect of transgenic expression on plant phenotype and seed weight [2] | hemolysis of porcine blood cells (porcine blood cells; 0.1% Triton-X, positive control) [%]
1 | CC[C@H](C)[C@@H]1NC(=O)CNC(=O)[C@H](CCCNC(=N)N)NC(=O)[C@H](Cc2ccc(O)cc2)NC(=O)[C@@H]2CSSC[C@H](NC1=O)C(=O)N[C@@H](Cc1ccc(O)cc1)C(=O)N[C@@H](CCCNC(=N)N)C(=O)N[C@@H](CCCNC(=N)N)C(=O)N[C@H](C(=O)N[C@@H](CCCNC(=N)N)C(N)=O)CSSC[C@H](NC(=O)[C@H](Cc1c[nH]c3ccccc13)NC(=O)[C@@H](N)CCCCN)C(=O)N[C@@H](Cc1ccccc1)C(=O)N[C@@H](CCCNC(=N)N)C(=O)N[C@@H](C(C)C)C(=O)N2 [tachyplesin1, reference compound] (H-KWCFRVCYRGICYRRCR-NH2; disulfide 3-16, 7-12) | 12.5 |  |  | 
2 | CC[C@H](C)[C@H](NC(=O)[C@@H]1CSSC[C@H](NC(=O)[C@H](CC(C)C)NC(=O)[C@H](CCCNC(=N)N)NC(=O)[C@H](C)NC(=O)[C@H](CCCCN)NC(=O)[C@@H](NC(=O)[C@@H](N)CCCCN)[C@@H](C)CC)C(=O)N[C@@H](CC(C)C)C(=O)NCC(=O)N[C@@H](CCCCN)C(=O)N[C@@H](Cc2ccccc2)C(=O)N1)C(=O)N[C@@H](CCCCN)C(=O)N[C@@H](C)C(=O)N[C@@H](CCCNC(=N)N)C(=O)N[C@@H](CC(C)C)C(=O)N[C@@H](CCCCN)C(=O)O [AGM182] (H-KIKARLCLGKFCIKARLK-OH; disulfide 7-12) | 2.5 | No hemolysis; also recorded: absence of hemolytic activity | did not exhibit any overt phenotype; also recorded: did not have any negative effect on plant phenotype and seed weight | 
3 | Triton-X [reference compound] |  |  |  | 100

Source: patent US12138294B2, “Transgenic corn with antifungal peptide AGM182 (DN:0113.18)” (GENVOR, INC., priority 2018, dated 2024)
